Laboratory results from ChEMBL document CHEMBL4813944 (Eur J Med Chem, 2021).
Active and inactive are the calls of the source. The calls are words filed in the database; no cut-off is given here.

What was measured:
[1] = Cytotoxicity against human SH-SY5Y cells assessed as cell viability at 1 uM measured after 24 hrs by calcein-AM staining based fluorescence analysis; conditions: read-out: Activity
[2] = Cytotoxicity against human SH-SY5Y cells assessed as cell viability at 10 uM measured after 24 hrs by calcein-AM staining based fluorescence analysis; conditions: read-out: Activity
[3] = Cytotoxicity against human SH-SY5Y cells assessed as cell viability at 0.1 uM measured after 24 hrs by calcein-AM staining based fluorescence analysis; conditions: read-out: Activity
SH-SY5Y [4] = assay: Neuroprotective activity against salsolinol-induced neurotoxicity in human SH-SY5Y cells assessed as cell viability at 1 uM measured after 24 hrs by calcein-AM staining based fluorescence analysis (reference value: 70.49 +/-0.51%); type: functional; conditions: read-out: Activity
SH-SY5Y [5] = assay: Neuroprotective activity against salsolinol-induced neurotoxicity in human SH-SY5Y cells assessed as reduction in cell death at 0.1 to 1 uM measured after 24 hrs by PI staining based analysis; type: functional; conditions: dose 0.1-1 µM

In the case of `COC(=O)[C@]12CCC(C)(C)C[C@@H]1[C@H]1C=C[C@@H]3[C@@]4(C)CC(SC#N)C(=O)C(C)(C)[C@@H]4CC[C@@]3(C)[C@]1(C)CC2` (stereo not given in full), the viability at 24 h, 1 µM [1] is reported as 107%, the viability at 24 h, 10 µM [2] is reported as 99.2% and the viability at 24 h, 0.1 µM [3] is reported as 100%.

Work on `CC1(C)CC[C@]23CC[C@]4(C)[C@H](CC[C@@H]5[C@@]6(C)CC(C#N)=C(O)C(C)(C)[C@@H]6CC[C@]54C)[C@H]2[C@H]1OC3` yielded a viability at 24 h, 1 µM [1] of 93.8%, a viability at 24 h, 10 µM [2] of 98.8% and a viability at 24 h, 0.1 µM [3] of 93.1%.

For `C=C(C)[C@@H]1CC[C@]2(C(=O)O)CC[C@]3(C)[C@H](C=C[C@@H]4[C@@]5(C)Cc6sc(N7CCOCC7)nc6C(C)(C)[C@@H]5CC[C@]43C)[C@@H]12`, the viability at 24 h, 1 µM [1] was 90%, the viability at 24 h, 10 µM [2] was 87% and the viability at 24 h, 0.1 µM [3] was 91.3%.

`C=C(Cn1cc(-c2cccnc2)nn1)[C@@H]1CC[C@]2(C(=O)O)CC[C@]3(C)[C@H](CC[C@@H]4[C@@]5(C)CC[C@H](OC(C)=O)C(C)(C)[C@@H]5CC[C@]43C)[C@@H]12` gave a viability at 24 h, 1 µM [1] of 124%, a viability at 1 µM (SH-SY5Y [4]) of 84.3% and a viability at 24 h, 10 µM [2] of 57.6%. The Activity (SH-SY5Y [5]) was “inactive” and the viability at 24 h, 0.1 µM [3] was 106%.

With `C=C(C(=O)O)[C@@H]1CC[C@]2(COC(C)=O)CC[C@]3(C)[C@H](CC[C@@H]4[C@@]5(C)CC[C@H](OC(C)=O)C(C)(C)[C@@H]5CC[C@]43C)[C@@H]12` the viability at 24 h, 1 µM [1] was 102%, the viability at 24 h, 10 µM [2] was 11.6% and the viability at 24 h, 0.1 µM [3] was 102%.

With `CC(=O)OC[C@H]1O[C@@H](n2cc(CO)nn2)[C@H](OC(C)=O)[C@@H](OC(C)=O)[C@H]1OC(C)=O` the viability at 24 h, 1 µM [1] was 107%, the viability at 24 h, 10 µM [2] was 100% and the viability at 24 h, 0.1 µM [3] was 109%.
